Data reported in US11807640B1 (priority 2023, dated 2023).
Converted amounts (≈) assume the structure as drawn.

Test system: Mycobacterium tuberculosis (MTB) H37Rv
Experiment: Resazurin Microplate Assay (REMA), anti-tubercular screening, H37Rv
Type: cell-based
Conditions: 192 h, Middlebrook 7H9 broth, 37° C., 8 days incubation then resazurin overnight, read-out: MIC (μg/mL) H37Rv

| Structure (SMILES) | MIC |
| --- | --- |
| CCOC(=O)c1cc(C(=O)c2ccc(F)cc2)n2ccc(C(=O)OC(C)C)cc12 [KNV-4, 1-Ethyl 7-isopropyl 3-(4-fluorobenzoyl)indolizine-1,7-dicarboxylate] | 1 µg/mL (≈ 2.52 µM) |
| COC(=O)c1c(C(=O)OC)c2cc(C(=O)OC(C)C)ccn2c1C(=O)c1ccc(Br)cc1 [KNV-7, 7-Isopropyl 1,2-dimethyl 3-(4-bromobenzoyl)indolizine-1,2,7-tricarboxylate] | 1 µg/mL (≈ 1.99 µM) |
